The subject of one assay is Male ApoE −/− mice. Description: Atherosclerotic lesion size (morphometric analysis) in apoE-/- mice after pump delivery of peptide. It is filed as in vivo. As to conditions: Example 2; apoE null mice; result in words. On the procedure: (§1) Male ApoE −/− mice (B&M, RY, DENMARK, 11 week old) were implanted subcutaneously with mini-osmotic pumps (ALZET1002, DURECT CORPORATION) diffusing PBS or 10 μg of P210, MDA-P210 or P240 per day and for 14 day, at a rate of 0.25 μl/h.
Then, the mice are kept for another 6 weeks and killed at 19 weeks of age.
Total Plasma and HDL cholesterol were measured with a commercially available cholesterol kit (SIGMA) according to the manufacturer's instructions. Morphometric and immuno-histochemical studies were performed in the aortic sinus and in the thoracic aorta (spanning from the brachiocephalic artery to the renal arteries). Collagen fibers were stained with Sirius red. Immuno-histochemical analysis were then performed. The following primary antibodies were used: MOMA-2 (BIOSOURCE INTERNATIONAL) as a specific marker for macrophages; anti-mouse CD3− (SANTA CRUZ); anti-smooth muscle actin, alkaline phosphatase conjugate, clone 1A4 (SIGMA); and anti-IL-10 antibody (SANTA CRUZ). Morphometric analysis was performed with an automated image processor (HISTOLAB, MICROVISION).
Male apoE−/− mice (B&M, RY, DENMARK, 11 week old) were implanted subcutaneously with mini-osmotic pumps (ALZET1002, DURECT CORPORATION) diffusing phosphate buffer saline (PBS) as control or 10 μg per day of P210, MDA-P210 or P240, for 14 days, at a rate of […]. An additional group of mice receiving ovalbumin (OVA) peptide (323-339) served as control.
Then, the mice were kept for another 6 or 10 weeks and killed at 19 or 23 weeks of age.
Male apoE−/− mice (11-week old) were implanted subcutaneously with mini-osmotic pumps (ALZET1002) diffusing phosphate buffer saline (PBS), as control, or 10 μg per day of P210, MDA-P210 or P240, for 14 days at a rate of 0.25 μl/h. An additional group of mice receiving ovalbumin (OVA) peptide (323-339) served as control. Mice were kept for another 6 weeks and killed at 19 weeks of age. […]

Assay [1] deals with Native or MDA-modified peptides 210 and 240. Description: Determination of antibody titers against peptide (serum IgG/IgM ELISA). It is filed as in vivo, mice. Conditions: Example 1; mouse serum 1:50, 405 nm. On the procedure: as §1
Native or MDA-modified peptides 210 and 240 were used for coating (10 μg/ml of each in PBS pH 7.4) microtiter plates (Nunc MaxiSorp, Nunc, Roskilde, Denmark) in an overnight incubation at 4° C. Coated plates were washed with PBS with 0.05% Tween-20 and thereafter blocked with SuperBlock in Tris-buffered saline (TBS, Pierce) for 5 minutes at room temperature followed by an incubation of mouse serum diluted 1:50 in TBS-0.05% Tween-20 for 2 hours at room temperature and overnight at 4° C. After rinsing, depositions were detected by using biotinylated goat anti-mouse IgM or IgG antibodies (JACKSON IMMUNORESEARCH, West Grove, Pa.) that were incubated for 2 hours at room temperature. The plates were washed and bound biotinylated antibodies were detected by alkaline phosphatase-conjugated streptavidin (SIGMA). The color reaction was developed using phosphatase substrate kit (Pierce). The absorbency at 405 nm was measured after 1 hour of incubation at room temperature. Mean values were calculated after subtraction of background absorbance.

The subject of another assay is CD4+ cells. In words: Cell proliferation assay: CD4+ cells with CD11c+ dendritic cells from treated mice, [3H]-thymidine. It is filed as cell-based. Conditions: Example 1; anti-CD3 3 μg/ml, 72 hours; PBS control 20 000 cpm. The source says:
T cells were purified from spleen or from draining lymph nodes by negative selection with anti-CD11b (M1/70), anti B220, anti-CD8 and anti-NK cells (DX5) followed by depletion with a mixture of magnetic beads coated with anti-rat Ig (DYNAL). CD11c+ dendritic cells were purified by positive selection with anti-CD11c using directly conjugated anti-CD11c beads (clone N418; MILTENYI BIOTEC).
For the cell proliferation assay, purified CD4+ cells (50 000) were mixed with CD11c+ cells (10 000) and anti-CD3 antibodies (3 μg/ml) for 72 hours. [3H]-Thymidine (1 μCi; PERKIN ELMER) was added for the last 18 hours of cell culture.

No end group written: not given here.

For “KTTKQSFDLSVKAQYKKNKH (peptide derived from apolipoprotein B) [P210, Human apoB-100 derived peptide, amino acids 3136 to 3155]”, in the assay on Male ApoE −/− mice, the “Effect of continuous administration on atherosclerotic plaques, associated inflammation and plaque composition” value (“Effect of continuous administration” below) was “diminution of the atherosclerotic plaques and of associated inflammation”. Besides, in assay [1], the “IgG against MDA-P210” value is 1.45±0.49 absorbance units, the “IgG against MDA-P240” value is on record as 0.080±0.038 absorbance units, the “IgG against P210” value amounted to 0.81±0.22 absorbance units and the “IgM against MDA-P210” value was 1.38±0.04 absorbance units. Further, in assay [1], the “IgM against MDA-P240” value was found to be 1.80±0.41 absorbance units and the “IgM against P210” value is 1.17±0.22 absorbance units.

For the substance “ISQAVHAAHAEINEAGR (peptide derived from ovalbumin) [Control: chicken ovalbumin (OVA) peptide, amino acids 323 to 339, reference compound]”, the “Effect of continuous administration” value with Male ApoE −/− mice is listed as “No significant modification”.

Take “MDA-P210: Malondialdehyde (MDA)-modified human apoB-100 derived peptide; native P210 modified by 0.5 mol/L MDA for 3 hours at 37° C. (KTTKQSFDLSVKAQYKKNKH; not fully specified)”: the “Effect of continuous administration” value with Male ApoE −/− mice is “diminution of the atherosclerotic plaques and of associated inflammation”. Besides, the “Proliferation of CD4+ cells from control mice in the presence of CD11c+ cells from treated mice” value in the assay on CD4+ cells stood at 9500 cpm. Further, in assay [1], the “IgG against MDA-P210” value was found to be 0.83±0.28 absorbance units, the “IgG against MDA-P240” value is recorded as 0.041±0.007 absorbance units, the “IgG against P210” value turned out to be 0.51±0.07 absorbance units and the “IgM against MDA-P210” value worked out at 1.30±0.13 absorbance units. In assay [1], the “IgM against MDA-P240” value turned out to be 1.24±0.40 absorbance units and the “IgM against P210” value is listed as 0.55±0.25 absorbance units.

For “FPDLGQEVALNANTKNQKIR (peptide derived from apolipoprotein B) [P240, Human apoB-100 derived peptide, amino acids 3586 to 3605]”, in assay [1], the “IgG against MDA-P210” value came out at 0.62±0.11 absorbance units, the “IgG against MDA-P240” value is 0.037±0.007 absorbance units, the “IgG against P210” value stood at 0.47±0.09 absorbance units and the “IgM against MDA-P210” value is 0.79±0.45 absorbance units. Besides, in assay [1], the “IgM against MDA-P240” value is recorded as 1.34±0.52 absorbance units and the “IgM against P210” value is reported as 0.79±0.45 absorbance units.

The record behind these values is patent US8324152B2, “Composition for the treatment of atherosclerosis” (Institute National de la Sante et de la Recherche Medicale …, priority 2005, dated 2012).
